Measured values from publication PMC9791652 (Journal of Medicinal Chemistry, 2022).
Values after ≈ are worked out from the molar mass of the structure shown. Read-outs that look alike come from different tables or passages of the source.

Legend:
[1] = system: Escherichia coliΔtolC (BW25113 ΔtolC); assay: organism not typed; type: cell-based
[2] = mouse liver microsomes
H37Rv = type: cell-based, Mycobacterium tuberculosis
[3] = system: M. marinum (expressing Wasabi) infected zebrafish larvae; type: in vivo; settings: for lowest dose significantly prolonging survival of infected zebrafish: 4-day exposure in water, refreshed daily, 1 to 5 dpi
[4] = system: streptomycin starved 18b nonreplicating Mtb (ss18b-lux); type: cell-based, Mycobacterium tuberculosis; settings: for drop in bacterial counts (cfu) of ss18b-lux: 7 days of exposure; for bactericidal activity against nonreplicating ss18b-lux by cfu counting: 7 days of antibiotic exposure
[5] = system: noninfected zebrafish larvae; settings: data not shown
physchem = settings: pH 7.4
Mtb H37Rv ATP levels = assay: Impact of TriSLa exposure on Mtb ATP levels; type: cell-based, Mycobacterium tuberculosis; settings: 24 h exposure
[6] = system: Mtb H37Rv NADH/NAD+ ratio; assay: Impact of TriSLa exposure on Mtb NADH and NAD+ levels; type: cell-based, Mycobacterium tuberculosis

SMILES | MIC [1] [µM] | lowest dose significantly prolonging survival of infected zebrafish [3] [µM] | ss18b-lux luminescence signal [4] | bactericidal activity against nonreplicating ss18b-lux by cfu counting [4] | toxicity in noninfected zebrafish larvae [5] | bacterial ATP concentrations (Mtb H37Rv ATP levels) | further results
CC(C)[C@H]1CO[C@]23CCN(Cc4ccccc4)C[C@H]2CCC(=O)N13 [Compound 1, (3S,7aR,11aR)-9-Benzyl-3-isopropyl-2,3,6,7,7a,8,10,11-octahydrooxazolo[2,3-j][1,6]naphthyridin-5-one] | > 100 |  |  |  |  |  | metabolic stability (in words) [2]: high clearance
CC(C)[C@H]1CO[C@]23CCN(Cc4ccc(C(F)(F)F)cc4)C[C@H]2CCC(=O)N13 [Compound 11, (3S,7aR,11aR)-3-Isopropyl-9-[[4-(trifluoromethyl)phenyl]methyl]-2,3,6,7,7a,8,10,11-octahydrooxazolo[2,3-j][1,6]naphthyridin-5-one] | 100 (≈ 39.6 µg/mL) | 0.3 | time-dependent decrease in luminescence | concentration-dependent killing | did not interfere with larval development or show any toxicity | concentration-dependent shutdown in bacterial ATP concentrations | bactericidal activity by cfu at 1× MIC (H37Rv): bacteriostatic; drop in cfu after 1 week (H37Rv): ~0.8 log; drop in cfu after 2 weeks (H37Rv): ~2.0 log; drop in bacterial counts (cfu) of ss18b-lux ([4]; 4.8 μM): 1–2 log; logD (physchem): 3.9
CC(C)[C@H]1CO[C@]23CCN(Cc4ccc(OC(F)(F)F)cc4)C[C@H]2CCC(=O)N13 [Compound 12, (3S,7aR,11aR)-3-Isopropyl-9-[[4-(trifluoromethoxy)phenyl]methyl]-2,3,6,7,7a,8,10,11-octahydrooxazolo[2,3-j][1,6]naphthyridin-5-one] | 100 (≈ 41.2 µg/mL) | 0.3 | time-dependent decrease in luminescence | concentration-dependent killing | did not interfere with larval development or show any toxicity | concentration-dependent shutdown in bacterial ATP concentrations | bactericidal activity by cfu at 1× MIC (H37Rv): bacteriostatic; drop in cfu after 1 week (H37Rv): ~0.8 log; drop in cfu after 2 weeks (H37Rv): ~2.0 log; bacterial load (fluorescence pixel count) in infected zebrafish ([3]; 0.5 μg/mL ([…]), 2–4 days of exposure): bacteriostatic; bacterial load (fluorescence pixel count) in infected zebrafish ([3]; 2 μg/mL (4.8 μM), between 2 and 4 days of exposure): significant decrease in the bacterial burden; infection foci in fluorescence images ([3]; 0.25 to 2 μg/mL (0.6–4.8 μM), 2 or 4-day treatment): fewer and less intense infection foci; drop in bacterial counts (cfu) of ss18b-lux ([4]; 4.8 μM): 1–2 log; logD (physchem): 3.4
CC(C)[C@H]1CO[C@]23CCN(Cc4ccc(C(F)(F)F)nc4)C[C@H]2CCC(=O)N13 [Compound 13, (3S,7aR,11aR)-3-Isopropyl-9-[[6-(trifluoromethyl)-3-pyridyl]methyl]-2,3,6,7,7a,8,10,11-octahydrooxazolo[2,3-j][1,6]naphthyridin-5-one] |  | 1.2 |  |  | did not interfere with larval development or show any toxicity |  | 
COc1nc2ccc(Br)cc2cc1[C@@H](c1ccccc1)[C@@](O)(CCN(C)C)c1cccc2ccccc12 [bedaquiline] |  |  | time-dependent decrease in luminescence | bactericidal |  | concentration-dependent shutdown in bacterial ATP concentrations | Mtb NADH/NAD+ ratio relative to untreated bacteria [6]: increase in the NADH/NAD^+ ratio; bactericidal activity by cfu at 1× and 2× MIC (H37Rv; H37Rv, 1× and 2× MIC (250 and 500 nM), 2 week exposure period): largely bacteriostatic; drop in bacterial counts (cfu) of ss18b-lux ([4]; 1 μM, stated as similar to 11 and 12 at 4.8 μM): 1–2 log
NNC(=O)c1ccncc1 [isoniazid] |  |  | increase in luminescence | no significant bactericidal activity |  |  | 
CO[C@H]1/C=C/O[C@@]2(C)Oc3c(C)c(O)c4c(O)c(c(/C=N/N5CCN(C)CC5)c(O)c4c3C2=O)NC(=O)/C(C)=C\C=C\[C@H](C)[C@H](O)[C@@H](C)[C@@H](O)[C@@H](C)[C@H](OC(C)=O)[C@@H]1C [rifampicin] |  |  | time-dependent decrease in luminescence | bactericidal |  |  | Mtb NADH/NAD+ ratio relative to untreated bacteria [6]: decrease in NADH/NAD^+; drop in bacterial counts (cfu) of ss18b-lux ([4]; 0.6 μM, stated as similar to 11 and 12 at 4.8 μM): 1–2 log
